Experimental data published in patent publication US8951988B2, “Azidothymidine quinoline conjugated compound, preparation method therefor and application thereof in anti-hepatoma therapy” (Huazhong University of Science and Technology, priority 2012, dated 2015).
Where “and” joins values, the source holds several entries; their conditions need not be identical. Identical values can stand only once.

How the values were obtained:
[1] = tested on: human liver carcinoma cells with hepatitis B Hep3B; assay: MTT cell viability assay, Hep3B; assay type: cell-based
Experimental: (§1) Cell culture: cancer cell lines HepG2 and Hep3B are obtained from ATCC (VA, USA), Human liver cells HL-7702 and murine liver cancer cells H22 are obtained from Shanghai Institute of Life Science Cell Culture Center (Shanghai, China). All the cells are maintained in high glucose DMEM or RPMI-1640 medium (Invitrogen, GA, USA) supplemented with 10% heat-inactivated fetal bovine serum (FBS), 25 mM HEPES, 2 mM L-glutamine, 0.1 mM nonessential amino acids, 1.0 mM sodium pyruvate, 50 U/mL penicillin, and 50 ug/ml streptomycin at 37° C. and 5% CO2.
(§2) Methods of cell viability assay: liver cells are seeded on 96-well plates, AZT-QX, Zidovudine, quinoline piperazine derivatives and doxorubicin are added in respectively, the concentration thereof are from 1 nM to […]. After 72 hours, an MTT assay is carried out to determine the cell viability [See method in: Zhou, et al. Chem. Res. Toxicol. 2008, 21, 732-738.].
(§3) Selective biological activity of AZT-QX is assessed using cell viability assays MTT on human liver carcinoma cells with hepatitis B Hep3B, hepatoblastoma cell line HepG2 and normal human liver cells HL-7702 (FIG. 3).
(§4) FIG. 3 illustrates determined cell viability of Hep3B hepatoma cells with hepatitis B, a HepG2 hepatoblastoma cell line and HL-7702 normal […] treated with AZT-QX (FIG. 3a), doxorubicin (FIG. 3b), Pip-QX (FIG. 3c), and Zidovudine (FIG. 3d).

[2] = body weight of mice in the H22 liver tumor model; settings: individual mice, 50 μM 100 μl on day 1 and day 7, in g (unit assumed)
From the text: Animal groups and drug administration: mice are divided into 3 groups once tumors reach an average size of 8.8×8.8 mm.

[3] = tested on: hepatoma cells with hepatitis B; assay: anti-BrdU fluorescence assay of nucleic acid synthesis, hepatoma cells; assay type: cell-based
From the text: (§5) The anti-BrdU fluorescence assay is used to determine the nucleic acid synthesis in cells (FIG. 4).
(§6) FIG. 4 illustrates fluorescence images of an anti-BrdU assay of nucleic acid synthesis in cells. As shown in the figure, the green fluorescence illustrates the nucleic acid synthesis in cells, and the blue fluorescence illustrates the nuclear staining.

[4] = tested on: normal liver cells HL-7702; assay: anti-BrdU fluorescence assay of nucleic acid synthesis, normal liver cells; assay type: cell-based, human
From the text: as §5, §6

[5] = tested on: normal human liver cells HL-7702; assay: MTT cell viability assay, HL-7702; settings: MTT after 72 hours
Experimental: as §1, §2, §3, §4

[6] = tested on: H22 liver cancer cells; assay: subcutaneous H22 liver tumor model in mice, tumor size and volume; assay type: in vivo, BALB/c mice; settings: for volume: individual mice, 50 μM 100 μl on day 1 and day 7
Experimental: The liver cancer tumor models are established by subcutaneously injecting H22 hepatoma cells. […] The further statistical analysis (see FIG. 6) confirms that as compared with the other two, AZT-QX has greater effectiveness p<0.01, and at a low dosage (0.13 mg/kg at a time, twice).
FIG. 6 illustrates the average growth of tumors in mice after administration and tumors in mice after 12 days, in which FIG. 6a is a figure of the average growth of tumors in mice; FIG. 6b is contrast of tumors in mice 12 days after different drug treatments. The control is a blank contrast, AZT is Zidovudine, AZT-QX is application of the compound of the invention.

[7] = tested on: hepatoblastoma cell line HepG2; assay: MTT cell viability assay, HepG2; assay type: cell-based, human; settings: MTT after 72 hours
Experimental: as §1, §2, §3, §4

Row | Compound | BW ([2]; Day 1) | BW ([2]; Day 2) | BW ([2]; Day 3) | BW ([2]; Day 4) | BW ([2]; Day 5) | BW ([2]; Day 6) | BW ([2]; Day 7) | BW ([2]; Day 8) | BW ([2]; Day 9) | BW ([2]; Day 10) | BW ([2]; Day 11) | BW ([2]; Day 12) | nucleic acid synthesis in hepatoma cells (green fluorescence) [3] | volume ([6]; Day 1, in mm³ (unit assumed)) | volume ([6]; Day 3, in mm³ (unit assumed)) | volume ([6]; Day 4, in mm³ (unit assumed)) | volume ([6]; Day 5, in mm³ (unit assumed)) | volume ([6]; Day 6, in mm³ (unit assumed)) | volume ([6]; Day 7, in mm³ (unit assumed)) | toxicity to normal liver cells HL-7702 (in words) [5] | further results
1 | Cc1cn([C@H]2C[C@H](n3cc(CNC(=O)CCCCCOc4ccc5c(c4)-c4nc6ccccc6nc4[C@@H]4C(C)(C)CCC[C@]54C)nn3)[C@@H](CO)O2)c(=O)[nH]c1=O [AZT-QX, N-((1-(2-(hydroxymethyl)-5-(5-methyl-2,4-dioxo-3,4-dihydro-pyrimidin-1(2H)-yl)-tetrahydrofuran-3-yl)-1H-1,2,3-triazol-4-yl)methyl)-6-(4b,8,8-trimethyl-4-b,5,6,7,8,8a-hexahydrodibenzo[a,c]phenazin-2-yloxy)hexanamide] | 30.7 and 35.4 and 26.9 | 31.7 and 36.3 and 27.7 | 32 and 36 and 27.6 | 32.5 and 37.1 and 28 | 32.4 and 32.9 and 28.2 | 32.2 and 37 and 28.1 | 32 and 36.3 and 27.9 | 33.2 and 36.6 and 28.7 | 33.5 and 36.6 and 28.8 | 34.1 and 36.7 and 28.7 | 34.5 and 36.8 and 29 | 35.8 and 37.9 and 29.5 | effectively inhibits green fluorescence in hepatoma cells | 256 and 288 and 500 | 500 and 405 and 288 | 500 and 364.5 and 405 | 665.5 and 364.5 and 445.5 | 936 and 405 and 550 | 907.5 and 500 and 550 | – | activity in combination with methotrexate ([1]; Hep3B cells, methotrexate added): additive effect; Hep3B cells killed ([1]; at 20 μM, MTT after 72 hours): 80%; activity after selective inhibition of thymidine kinase by siRNA ([1]; hepatoma cells with hepatitis B, thymidine kinase siRNA): decreased; nucleic acid synthesis in normal liver cells HL-7702 [4]: does not affect the nucleic acid synthesis; toxicity to human normal liver cells HL-7702 (in words) ([5]; at 200 μM): no significant toxicity; volume ([6]; Day 2): 364.5 and 288 (2×); volume ([6]; Day 8, in mm³ (unit assumed)): 1080 and 500 and 600; volume ([6]; Day 9, in mm³ (unit assumed)): 1080 and 665.5 and 666; volume ([6]; Day 10, in mm³ (unit assumed)): 1080 and 786.5 and 726; volume ([6]; Day 11, in mm³ (unit assumed)): 1267.5 and 847 and 726; volume ([6]; Day 12, in mm³ (unit assumed)): 1267.5 and 1008 and 726; average tumor growth after 12 days (in words) ([6]; injected intratumorally on day 1 and day 7, 100 μL): inhibits tumor growth
2 | Cc1cn([C@H]2C[C@H](N=[N+]=[N-])[C@@H](CO)O2)c(=O)[nH]c1=O [Zidovudine] | 26.9 and 29.9 and 31.9 | 26.8 and 31.5 and 32 | 26.8 and 31.5 and 31.8 | 27.2 and 31.4 and 33 | 27 and 31.3 and 32.7 | 27.4 and 31.3 and 33.8 | 26.9 and 31.5 and 33.5 | 26.6 and 32.7 and 34.1 | 27 and 33.3 and 34.2 | 27 and 34.5 and 34.4 | 27.7 and 36.6 and 35.1 | 28.8 and 37.4 and 35.9 | no effect in inhibiting nucleic acid synthesis | 220.5 and 364.5 and 405 | 320 and 665.5 and 600 | 650 and 726 and 786.5 | 486 and 936 and 786.5 | 1028.5 and 1183 and 1470 | 1149.5 and 1687.5 and 1568 | no significant toxicity | toxicity to / killing of Hep3B cells (in words) ([1]; MTT after 72 hours): no significant toxicity; volume ([6]; Day 2, in mm³ (unit assumed)): 245 and 550 and 405; volume ([6]; Day 8, in mm³ (unit assumed)): 1368 and 3402 and 2560; volume ([6]; Day 9, in mm³ (unit assumed)): 1368 and 3610 and 3240; volume ([6]; Day 10, in mm³ (unit assumed)): 1368 and 3790.5 and 4851; volume ([6]; Day 11, in mm³ (unit assumed)): 1440 and 4400 and 5071.5; volume ([6]; Day 12, in mm³ (unit assumed)): 1960 and 5292 and 4851; toxicity to / killing of HepG2 cells (in words) [7]: no significant toxicity
3 | COc1cccc2c1C(=O)c1c(O)c3c(c(O)c1C2=O)C[C@@](O)(C(=O)CO)C[C@@H]3O[C@H]1C[C@H](N)[C@H](O)[C@H](C)O1 [doxorubicin] | – | – | – | – | – | – | – | – | – | – | – | – | – | – | – | – | – | – | – | more severe than to hepatoma cells | –
4 | CN1CCN(C(=O)Oc2ccc3c(c2)-c2nc4ccccc4nc2[C@@H]2C(C)(C)CCC[C@]32C)CC1 [pip-QX] | – | – | – | – | – | – | – | – | – | – | – | – | effect similar to AZT-QX | – | – | – | – | – | – | killed all the liver cell lines non-selectively | toxicity to / killing of Hep3B cells (in words) ([1]; MTT after 72 hours): killed all the liver cell lines non-selectively; toxicity to / killing of HepG2 cells (in words) [7]: killed all the liver cell lines non-selectively
